For data set [1], the system named is heat hyperalgesia in spinal L5/L6 nerve–ligated neuropathic rats. Description: Heat hyperalgesia (radiant heat paw withdrawal latency) after intrathecal injection in spinal nerve-ligated neuropathic rats. The data set is classed as in vivo, rat. The protocol: (§1) An 18-cm polyethylene catheter (PE-10: 0.28-mm inner diameter and 0.61-mm outer diameter, Clay Adams, Parsippany, NJ, USA) with a volume of 13 μL was inserted into the lumbar level of the spinal cord as described elsewhere under inhalational isoflurane anesthesia (4% for induction and 1% for maintenance) run by an anesthesia meter (Ugo Basile Gas Anesthesia System, Comerio, Italy). Two days after recovery from anesthesia, the placement of the catheter in the spinal cord was verified by administration of 4% lidocaine (10 μL, followed by 15 μL of saline for flushing). Rats that had no motor impairment after placement of the intrathecal catheter were considered for the study, and rats that developed immediate bilateral paralysis of the hindlimbs after intrathecal administration of lidocaine were selected for the study. For intrathecal administration of the control and test articles, 10 μL of each drug was injected with a 50-μL microinjector (Shanghai Anting Micro-Injector Factory, Shanghai, China) and was flushed with 15 μL of normal saline solution.
To induce hypersensitivity to neuropathic pain, the rats were subjected to spinal nerve ligation as previously described [Kim and Chung (1992)] and [Zhang et al. (2013)]. Unilateral ligation of the L5 and L6 spinal nerves was performed under inhalational isoflurane anesthesia (4% for induction and 1% for maintenance) run by an anesthesia meter (Ugo Basile Gas Anesthesia System). The left L5 and L6 spinal nerves were isolated and tightly ligated with 6-0 silk thread. After ligation, the wound was sutured and the rats were returned to their home cages for recovery. After spinal nerve ligation, only those rats with marked unilateral allodynia to mechanical stimulation (i.e., a hindpaw withdrawal threshold of less than 8 g on the operated side) and with no major impairment were included in the study. Drug testing started 2–4 weeks after spinal nerve ligation.
To assess heat hyperalgesia, the rats were put in a plexiglass box on an elevated glass surface. After an adaptation period of at least 30 min, radiant heat was applied to the plantar medial surface of each hindpaw. The hindpaw withdrawal latency was measured with a Model 390G Plantar Test Analgesia Meter (IITC Life Science Inc.). To prevent tissue damage, the latency cutoff was set at 30 s. The paw withdrawal latency was defined as the time from the onset of radiant heat application to the withdrawal of the hindpaw. Both hindpaws were tested independently three times with a 5-min interval between trials. The result for each test was calculated as the mean of the three repeated measurements.
(§2) The percentage of maximal possible effect (% MPE) was calculated using the following formula: (postdrug threshold in ipsilateral hindlimb – baseline threshold in ipsilateral hindlimb)/(baseline threshold in contralateral hindlimb – baseline threshold in ipsilateral hindlimb) × 100 ([Bowersox et al., 1996]). A % MPE value near 100 indicates normal mechanical thresholds (i.e., near contralateral thresholds), and a value near 0 indicates allodynia. For the dose-response curve analysis, the parameters (i.e., minimum effect; Emax, median effective concentration or dose, or median toxic or lethal dose [EC50, ED50, TD50, or LD50], and Hill coefficient [n]) were calculated from the individual dose-response curves using the Prism program (version 5.01, GraphPad Software, San Diego, CA, USA). […]

The subject of data set [2] is prodynorphin gene expression in primary cultures of spinal microglia. Description: Prodynorphin gene expression in cultured primary spinal microglia (real-time quantitative PCR). The data set is classed as cell-based, rat. How it is done: Glial cells were isolated from the 1-day-old neonatal rats. The isolated spinal cords were minced and then incubated with trypsin. Dissociated cells were suspended in 75-cm^2 tissue culture flasks (1 × 10^7 cells/flask) precoated with poly-L-lysine and maintained in a 5% CO2 incubator at 37°C. After culture for 10 days, the microglial cells were prepared as floating cell suspensions by shaking the flask at 260 rpm for 2 h. The aliquots were transferred to plates, and the unattached cells were removed by washing with serum-free Dulbecco’s modified Eagle’s medium.
RNA extraction, reverse transcription, and real-time quantitative PCR were performed as previously described ([Chen et al., 2012]). The spinal lumbar enlargements of rats were collected and mechanically homogenized with an electronic microhomogenizer at 4,000 rpm for 10 s in TRIzol on ice. Total RNA from the spinal lumbar enlargements were isolated using TRIzol reagent (Invitrogen, Grand Island, NY, USA). A 1-μg sample of total RNA was reverse-transcribed with a ReverTra Ace qPCR RT-Kit (Toyobo, Japan). Real-time quantitative PCR was carried out with the Mastercycler ep realplex (Eppendorf, Germany) using the RealmasterMix (SYBR Green I) (Toyobo). The fold change was calculated with the 2^-ΔΔCt method after normalization to the gene of gapdh. […]
as §2, with “A % MPE value near 100 indicates normal mechanical thresholds (i.e., near contralateral thresholds), and a value near 0 indicates allodynia.” left out
Primary cultures of microglial cells taken from the spinal cords of the neonatal rats were treated with a variety of concentrations of aconitine (1 × 10^-8, 3 × 10^-8, 1 × 10^-7, 3 × 10^-7, and 1 × 10^-6 M), benzolyaconine (3 × 10^-7, 1 × 10^-6, 3 × 10^-6, 1 × 10^-5, 3 × 10^-5, and 1 × 10^-4 M) and aconine (1 × 10^-4, 3 × 10^-4, 1 × 10^-3, 3 × 10^-3, and 1 × 10^-2 M) for 2 h. As the bulleyaconitine A-increased dynorphin A level measured by the enzyme-linked immunosorbent assay was in parallel with the prodynorphin gene expression in spinal microglia from neonatal and adult rats ([Li et al., 2016]), the expression of the cellular prodynorphin gene encoding dynorphin A was only measured in this study using real-time quantitative PCR. […]

Data set [3] concerns spinal nerve–ligated neuropathic rats. Description: Acute spinal neurotoxicity (flaccid paralysis and death) after intrathecal injection. The data set is classed as in vivo, rat. How it is done:
as §1
Survival and abnormal motor-blockade behaviors, including asthma, abdominal breathing, locomotion difficulty, and paralysis, were continuously monitored for 24 h after the treatment, with special attention given during the first 4 h. Paralysis was defined as an inability to negotiate a 60-degree inclined plane ([Durant and Yaksh, 1986]). Death was defined as respiratory arrest over a period of 5 min. The paralysis and mortality rates and their latencies were quantitatively recorded and tabulated.
The percentage of maximal possible effect (% MPE) was calculated using the following formula: (postdrug threshold in ipsilateral hindlimb – baseline threshold in ipsilateral hindlimb)/(baseline threshold in contralateral hindlimb – baseline threshold in ipsilateral hindlimb) × 100 ([Bowersox et al., 1996]). A % MPE value near 100 indicates normal mechanical thresholds (i.e., near contralateral thresholds), and a value near 0 indicates allodynia. For the dose-response curve analysis, the parameters (i.e., minimum effect; Emax, median effective concentration or dose, or median toxic or lethal dose [EC50, ED50, TD50, or LD50], and Hill coefficient [n]) were calculated from the individual dose-response curves using the Prism program (version 5.01, GraphPad Software, San Diego, CA, USA). To determine the parameters of the dose-response curves, the values of response (Y) were fitted by non-linear least-squares curves to the relation Y = a + bx, where x = [D]^n/(ED50^n + [D]^n), [C]^n/(EC50^n + [C]^n), [D]^n/(TD50^n + [D]^n) or [D]^n/(LD50^n + [D]^n), to give each value of ED50, EC50, TD50, or LD50 and b (Emax) yielding a minimum residual sum of squares of deviations from the theoretical curve ([Wang and Pang, 1993]).

[4] abbreviates: intrathecal bolus, observed 24 h.

In general, EC50 refers to the concentration that produces a half-maximal response. For the molecule `CCN1C[C@]2(COC)[C@H](O)C[C@H](OC)[C@@]34[C@@H]5C[C@@]6(O)[C@H](OC(=O)c7ccccc7)[C@@H]5[C@@](OC(C)=O)([C@@H]([C@H](OC)[C@H]23)[C@@H]14)[C@@H](O)[C@@H]6OC` [Aconitine, aconitine], the “Emax, blockade of thermal hyperalgesia” value in data set [1] (1 h after injection) came to 100 % MPE. In data set [1] (% MPE at 1 h after injection), the “ED50, blockade of thermal hyperalgesia” value amounted to 32 pmol. Besides, the “Potency on microglial dynorphin A expression relative to bulleyaconitine A (more potent by)” value in data set [2] (EC50 32 nM versus 45 nM) was “approximately 0.5 fold”. In data set [2] (Rattus norvegicus, primary spinal microglia of neonatal rats, 2 h incubation, read-out: EC50, stimulation of prodynorphin gene (dynorphin A) expression), the half-maximal effective concentration (EC50) is 32 nM. For the same molecule, in data set [3] (intrathecal), the “Duration of toxic motor-blockade behavior” value lay within 5 to 10 min and the “Latency of toxic motor-blockade behavior” value fell in the range of 2 to 3 min. In data set [3] (intrathecal 0.25 μg), this molecule gave a Death latency of 13.6 min and a Paralysis latency of 2.3 ± 0.7 min. Besides, in data set [3] (intrathecal 0.32 μg), the Death latency amounted to 12.4 ± 2.3 min and the Paralysis latency is 2.5 ± 0.8 min. In data set [3] (intrathecal 0.4 μg), this molecule registered a Death latency of 10.0 ± 3.3 min and a Paralysis latency of 2.6 ± 1.2 min. In data set [3] (setting [4]), the “LD50 (mortality)” value came out at 0.6 nmol and the “TD50 (for flaccid paralysis)” value came to 0.4 nmol. Also, the “Normalized TD50” value in data set [3] (intrathecal, average of TD50 (paralysis) and LD50) is 0.5 nmol.
